Reference: patent US8846704B2, “Thiopyrimidine-based compounds and uses thereof” (YM Biosciences Austraila Pty Ltd, priority 2007, dated 2014)
pIC50: −log10 of the molar value.

Molecular target: T1, FLT-3 tyrosine kinase (Homo sapiens, UniProt P36888)
T1 construct: purchased Upstate Cell Signalling Solutions, CA, USA 14-500
T1 sequence (P36888 27-993): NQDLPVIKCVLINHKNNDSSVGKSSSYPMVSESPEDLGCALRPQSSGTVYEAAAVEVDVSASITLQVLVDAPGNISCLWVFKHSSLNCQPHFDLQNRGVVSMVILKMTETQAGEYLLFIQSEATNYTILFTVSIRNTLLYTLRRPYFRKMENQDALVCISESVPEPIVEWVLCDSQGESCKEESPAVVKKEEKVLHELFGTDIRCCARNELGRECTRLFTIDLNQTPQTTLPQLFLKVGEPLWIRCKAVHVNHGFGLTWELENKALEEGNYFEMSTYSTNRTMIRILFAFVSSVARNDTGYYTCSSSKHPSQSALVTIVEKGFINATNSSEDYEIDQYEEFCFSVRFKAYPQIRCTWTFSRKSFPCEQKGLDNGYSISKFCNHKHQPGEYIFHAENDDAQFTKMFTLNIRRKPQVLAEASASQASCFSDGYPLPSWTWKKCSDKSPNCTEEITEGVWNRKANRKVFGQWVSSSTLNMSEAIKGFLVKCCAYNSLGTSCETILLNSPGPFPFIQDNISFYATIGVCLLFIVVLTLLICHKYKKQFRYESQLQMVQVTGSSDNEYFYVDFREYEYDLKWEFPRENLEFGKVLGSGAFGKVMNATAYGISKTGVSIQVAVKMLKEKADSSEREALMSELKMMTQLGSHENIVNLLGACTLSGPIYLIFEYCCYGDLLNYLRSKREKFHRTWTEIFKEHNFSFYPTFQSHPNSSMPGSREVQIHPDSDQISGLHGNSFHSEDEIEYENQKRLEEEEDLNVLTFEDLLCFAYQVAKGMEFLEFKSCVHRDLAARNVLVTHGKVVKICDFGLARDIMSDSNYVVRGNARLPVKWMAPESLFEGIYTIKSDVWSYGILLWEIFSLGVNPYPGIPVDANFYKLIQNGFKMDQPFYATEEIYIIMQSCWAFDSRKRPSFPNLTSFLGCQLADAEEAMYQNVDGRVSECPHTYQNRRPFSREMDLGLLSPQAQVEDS
Experiment: Alphascreen tyrosine kinase enzyme assay, FLT-3
Assay type: biochemical
Settings: FLT3; read-out: FMS, FLT3, or HCK IC50_nM (FLT3)
Protocol: For screening purposes, compounds (in 100% DMSO) were warmed at 37 degrees for at least 20 minutes before use. A […] stock was initially made in assay buffer, where the final concentration of DMSO was 0.3%. The stocks were then diluted in 384 well Optiplates (Packard) where the final concentration of the compound was […].
FLT-3 tyrosine kinase enzyme was purchased from Upstate Cell Signalling Solutions, CA, USA (flt-3 catalog #: 14-500).
Kinase assays were performed in 384 well Optiplates (Packard) using an Alphascreen Protein Tyrosine Kinase PY100 detection kit The compounds were pre-incubated with affinity purified PTK domain in the presence of phosphotyrosine assay buffer (10 mM HEPES, pH 7.5, 100 mM MgCl2, 25 mM NaCl, […] and 0.1% Tween 20) for 20 minutes. The compounds were then incubated with substrate in the presence of ATP. The substrate used was susbtrate-1 with the sequence biotin-EGPWLEEEEEAYGWMDF-NH2 [SEQ. ID. NO. 13] (final concentration […]). For HCK 80 μm ATP was used and incubated for 60 minutes. Alphascreen phosphotyrosine acceptor beads followed by streptavidin donor beads at a concentration of 1/100 in stop buffer were added to each well under subdued light and incubated for 2-3 hours., The Alphascreen plates were read on a Packard Fusion Alpha instrument.

COc1cc(Nc2nccc(Sc3ccc(NCC#N)cc3)n2)cc(OC)c1OC [Compound 52, 2-(4-(2-(3,4,5-trimethoxyphenylao)pyrimidin-4-ylthio)phenylao)acetonitrile]
pIC50: > 6.30
